Data as given in patent US8216786B2, “Genetic polymorphisms associated with cardiovascular diseases, methods of detection and uses thereof” (Celera Corporation, priority 2008, dated 2012).

Test system: individuals who have previously had an MI
Test: CARE trial: effect of pravastatin vs placebo on coronary events (endpt1, rmi) by SNP genotype subgroup
Format: in vivo, human
Experimental: In Tables 21-22, the column labeled “Endpoint” indicates whether the endpoint that was analyzed was the primary endpoint of the CARE study (a composite endpoint of fatal coronary event or nonfatal MI, and identified as “endpt1”) or a composite endpoint of confirmed fatal or nonfatal MI (identified as “rmi”). […] As used herein, the term “benefit” (with respect to a preventive or therapeutic drug treatment) is defined as achieving a reduced risk for a disease that the drug is intended to treat or prevent (e.g., CVD such as CHD, particularly MI, or hypertension) by administering the drug treatment, compared with the risk for the disease in the absence of receiving the drug treatment (or receiving a placebo in lieu of the drug treatment) for the same genotype. […] J. […] (1996) New England Journal of Medicine 335: 1001-1009. […] A well-documented MI was one of the enrollment criteria for entry into the CARE study. Patients were enrolled in the CARE trial from 80 participating study centers. […] For the study of CARE described in this Example and shown in Tables 21-22, two endpoints were investigated: the primary endpoint of CARE (a composite endpoint of fatal coronary event or nonfatal MI, and identified as “endpt1” in the Endpoint column of Tables 21-22) and a composite endpoint of confirmed fatal or nonfatal MI (identified as “rmi” in the Endpoint column of Tables 21-22). […] HR stands for Hazard Ratio, which is a concept similar to Odds Ratio (OR). The HR in event-free survival analysis is the effect of an explanatory variable on the hazard or risk of an event. […] In Table 21, p-interaction values were calculated. An interaction (or effect modification) is formed when a third variable modifies the relation between an exposure and outcome. […] Genotype and drug interaction is present when the effect of statins (incidence rate of disease in statin-treated group, as compared to placebo) differs in patients with different genotypes.

[1] = endpt1, hCV370782 rs9841174 SERPINI2, CC
[2] = endpt1, hCV370782 rs9841174 SERPINI2, CT + TT
[3] = endpt1, hCV795442 rs375947 IL12RB1, AA
[4] = endpt1, hCV795442 rs375947 IL12RB1, GA + GG
[5] = endpt1, hCV818008 rs5918 ITGB3, CC
[6] = endpt1, hCV818008 rs5918 ITGB3, CT + TT
[7] = endpt1, hCV904973 rs7412 APOE, CC
[8] = endpt1, hCV904973 rs7412 APOE, TC + TT
[9] = endpt1, hCV997884 rs512770, AG + GG
[10] = endpt1, hCV2553030 rs11230562 CD6, TC + CC
[11] = endpt1, hCV2553030 rs11230562 CD6, TT
[12] = endpt1, hCV2769554 rs1805010 IL4R, GA + AA
[13] = endpt1, hCV2769554 rs1805010 IL4R, GG
[14] = endpt1, hCV2822674 rs1801222 CUBN, AA
[15] = endpt1, hCV2822674 rs1801222 CUBN, AG + GG
[16] = endpt1, hCV2983036 rs9527025 KL, CC
[17] = endpt1, hCV2983036 rs9527025 KL, CG
[18] = endpt1, hCV2983036 rs9527025 KL, GG
[19] = endpt1, hCV2992252 rs6037651 SIGLEC1, CC
[20] = endpt1, hCV2992252 rs6037651 SIGLEC1, CT + TT
[21] = endpt1, hCV3135085 rs10795446 CUBN, GG
[22] = endpt1, hCV3187716 rs5186 AGTR1, CA + AA
[23] = endpt1, hCV3187716 rs5186 AGTR1, CC
[24] = endpt1, hCV3215409 rs267561 ITGA9, GA + AA
[25] = endpt1, hCV3215409 rs267561 ITGA9, GG
[26] = endpt1, hCV3219460 rs1799983 NOS3, TG + GG
[27] = endpt1, hCV3219460 rs1799983 NOS3, TT
[28] = endpt1, hCV7514870 rs1041981 LTA, AA
[29] = endpt1, hCV7514870 rs1041981 LTA, AC + CC
[30] = endpt1, hCV8705506 rs5516 KLK1, CG + CC
[31] = endpt1, hCV8705506 rs5516 KLK1, GG
[32] = endpt1, hCV8708473 rs1800469 TMEM91, AA
[33] = endpt1, hCV8708473 rs1800469 TMEM91, AG + GG
[34] = endpt1, hCV8708474 rs1800468 MGC4093, CC
[35] = endpt1, hCV8708474 rs1800468 MGC4093, TC + TT
[36] = endpt1, hCV8709053 rs4880 SOD2, GA + AA
[37] = endpt1, hCV8709053 rs4880 SOD2, GG
[38] = endpt1, hCV8718197 rs1050998 CXCL16, AA
[39] = endpt1, hCV8718197 rs1050998 CXCL16, GA + GG
[40] = endpt1, hCV8726337 rs5498 ICAM1, AA
[41] = endpt1, hCV8726337 rs5498 ICAM1, GA + GG
[42] = endpt1, hCV8737990 rs419598 IL1RN, CC
[43] = endpt1, hCV8737990 rs419598 IL1RN, CT + TT
[44] = endpt1, hCV8784787 rs688976, AA
[45] = endpt1, hCV8784787 rs688976, AC + CC
[46] = endpt1, hCV8804621 rs1390938 SLC18A1, AA
[47] = endpt1, hCV8804621 rs1390938 SLC18A1, AG + GG
[48] = endpt1, hCV8848630 rs7192 HLA-DRA, GG
[49] = endpt1, hCV8848630 rs7192 HLA-DRA, TG + TT
[50] = endpt1, hCV8851047 rs45614833 HLA-DPA1, CC

CC[C@H](C)C(=O)O[C@H]1C[C@H](O)C=C2C=C[C@H](C)[C@H](CC[C@@H](O)C[C@@H](O)CC(=O)O)[C@H]21 [pravastatin]
Hazard ratio, Pravastatin vs placebo (CARE, SNP hCV11170747, genotype strata in row order): 0.87 | EVENTS (Pravastatin arm) [1]: 20 | NONEVENT (Pravastatin arm) [1]: 194 | EVENTS (Pravastatin arm) [2]: 113 | NONEVENT (Pravastatin arm) [2]: 1097 | EVENTS (Pravastatin arm) [3]: 52 | NONEVENT (Pravastatin arm) [3]: 599 | EVENTS (Pravastatin arm) [4]: 80 | NONEVENT (Pravastatin arm) [4]: 691 | EVENTS (Pravastatin arm) [5]: 7 | NONEVENT (Pravastatin arm) [5]: 26 | EVENTS (Pravastatin arm) [6]: 126 | NONEVENT (Pravastatin arm) [6]: 1266 | EVENTS (Pravastatin arm) [7]: 114 | NONEVENT (Pravastatin arm) [7]: 1149 | EVENTS (Pravastatin arm) [8]: 19 | NONEVENT (Pravastatin arm) [8]: 141 | EVENTS (Pravastatin arm) (endpt1, hCV997884 rs512770, AA): 5 | NONEVENT (Pravastatin arm) (endpt1, hCV997884 rs512770, AA): 42 | EVENTS (Pravastatin arm) [9]: 126 | NONEVENT (Pravastatin arm) [9]: 1241 | EVENTS (Pravastatin arm) [10]: 129 | NONEVENT (Pravastatin arm) [10]: 1179 | EVENTS (Pravastatin arm) [11]: 3 | NONEVENT (Pravastatin arm) [11]: 107 | EVENTS (Pravastatin arm) [12]: 101 | NONEVENT (Pravastatin arm) [12]: 1001 | EVENTS (Pravastatin arm) [13]: 32 | NONEVENT (Pravastatin arm) [13]: 287 | EVENTS (Pravastatin arm) [14]: 10 | NONEVENT (Pravastatin arm) [14]: 150 | EVENTS (Pravastatin arm) [15]: 123 | NONEVENT (Pravastatin arm) [15]: 1140 | EVENTS (Pravastatin arm) [16]: 4 | NONEVENT (Pravastatin arm) [16]: 22 | EVENTS (Pravastatin arm) [17]: 32 | NONEVENT (Pravastatin arm) [17]: 363 | EVENTS (Pravastatin arm) [18]: 97 | NONEVENT (Pravastatin arm) [18]: 906 | EVENTS (Pravastatin arm) [19]: 8 | NONEVENT (Pravastatin arm) [19]: 196 | EVENTS (Pravastatin arm) [20]: 124 | NONEVENT (Pravastatin arm) [20]: 1089 | EVENTS (Pravastatin arm) [21]: 10 | NONEVENT (Pravastatin arm) [21]: 147 | EVENTS (Pravastatin arm) [22]: 128 | NONEVENT (Pravastatin arm) [22]: 1176 | EVENTS (Pravastatin arm) [23]: 5 | NONEVENT (Pravastatin arm) [23]: 112 | EVENTS (Pravastatin arm) [24]: 118 | NONEVENT (Pravastatin arm) [24]: 1057 | EVENTS (Pravastatin arm) [25]: 15 | NONEVENT (Pravastatin arm) [25]: 235 | EVENTS (Pravastatin arm) [26]: 124 | NONEVENT (Pravastatin arm) [26]: 1114 | EVENTS (Pravastatin arm) [27]: 9 | NONEVENT (Pravastatin arm) [27]: 177 | EVENTS (Pravastatin arm) [28]: 12 | NONEVENT (Pravastatin arm) [28]: 172 | EVENTS (Pravastatin arm) [29]: 121 | NONEVENT (Pravastatin arm) [29]: 1118 | EVENTS (Pravastatin arm) [30]: 66 | NONEVENT (Pravastatin arm) [30]: 749 | EVENTS (Pravastatin arm) [31]: 67 | NONEVENT (Pravastatin arm) [31]: 543 | EVENTS (Pravastatin arm) [32]: 9 | NONEVENT (Pravastatin arm) [32]: 139 | EVENTS (Pravastatin arm) [33]: 124 | NONEVENT (Pravastatin arm) [33]: 1153 | EVENTS (Pravastatin arm) [34]: 103 | NONEVENT (Pravastatin arm) [34]: 1068 | EVENTS (Pravastatin arm) [35]: 30 | NONEVENT (Pravastatin arm) [35]: 212 | EVENTS (Pravastatin arm) [36]: 105 | NONEVENT (Pravastatin arm) [36]: 954 | EVENTS (Pravastatin arm) [37]: 28 | NONEVENT (Pravastatin arm) [37]: 335 | EVENTS (Pravastatin arm) [38]: 33 | NONEVENT (Pravastatin arm) [38]: 409 | EVENTS (Pravastatin arm) [39]: 98 | NONEVENT (Pravastatin arm) [39]: 879 | EVENTS (Pravastatin arm) [40]: 31 | NONEVENT (Pravastatin arm) [40]: 430 | EVENTS (Pravastatin arm) [41]: 102 | NONEVENT (Pravastatin arm) [41]: 857 | EVENTS (Pravastatin arm) [42]: 15 | NONEVENT (Pravastatin arm) [42]: 96 | EVENTS (Pravastatin arm) [43]: 117 | NONEVENT (Pravastatin arm) [43]: 1193 | EVENTS (Pravastatin arm) [44]: 6 | NONEVENT (Pravastatin arm) [44]: 57 | EVENTS (Pravastatin arm) [45]: 126 | NONEVENT (Pravastatin arm) [45]: 1234 | EVENTS (Pravastatin arm) [46]: 8 | NONEVENT (Pravastatin arm) [46]: 69 | EVENTS (Pravastatin arm) [47]: 125 | NONEVENT (Pravastatin arm) [47]: 1218 | EVENTS (Pravastatin arm) [48]: 59 | NONEVENT (Pravastatin arm) [48]: 485 | EVENTS (Pravastatin arm) [49]: 74 | NONEVENT (Pravastatin arm) [49]: 802 | EVENTS (Pravastatin arm) [50]: 7 | NONEVENT (Pravastatin arm) [50]: 32 | EVENTS (Pravastatin arm) (endpt1, hCV8851047 rs45614833 HLA-DPA1, CT + TT): 126
